Assays:
GABA B receptor = GABA B receptor (Rattus norvegicus, UniProt O88871+Q9Z0U4); assay: Displacement of [3H]baclofen from gamma-aminobutyric-acid B receptor; assay type: protein-complex assay
[1] = target: GABA-A receptor; anion channel; assay: Inhibition of [3H]GABA binding to gamma-aminobutyric-acid A (GABA-A) receptor; assay type: protein-complex assay, Rattus norvegicus

Sequence of GABA B receptor (Q9Z0U4 whole entry): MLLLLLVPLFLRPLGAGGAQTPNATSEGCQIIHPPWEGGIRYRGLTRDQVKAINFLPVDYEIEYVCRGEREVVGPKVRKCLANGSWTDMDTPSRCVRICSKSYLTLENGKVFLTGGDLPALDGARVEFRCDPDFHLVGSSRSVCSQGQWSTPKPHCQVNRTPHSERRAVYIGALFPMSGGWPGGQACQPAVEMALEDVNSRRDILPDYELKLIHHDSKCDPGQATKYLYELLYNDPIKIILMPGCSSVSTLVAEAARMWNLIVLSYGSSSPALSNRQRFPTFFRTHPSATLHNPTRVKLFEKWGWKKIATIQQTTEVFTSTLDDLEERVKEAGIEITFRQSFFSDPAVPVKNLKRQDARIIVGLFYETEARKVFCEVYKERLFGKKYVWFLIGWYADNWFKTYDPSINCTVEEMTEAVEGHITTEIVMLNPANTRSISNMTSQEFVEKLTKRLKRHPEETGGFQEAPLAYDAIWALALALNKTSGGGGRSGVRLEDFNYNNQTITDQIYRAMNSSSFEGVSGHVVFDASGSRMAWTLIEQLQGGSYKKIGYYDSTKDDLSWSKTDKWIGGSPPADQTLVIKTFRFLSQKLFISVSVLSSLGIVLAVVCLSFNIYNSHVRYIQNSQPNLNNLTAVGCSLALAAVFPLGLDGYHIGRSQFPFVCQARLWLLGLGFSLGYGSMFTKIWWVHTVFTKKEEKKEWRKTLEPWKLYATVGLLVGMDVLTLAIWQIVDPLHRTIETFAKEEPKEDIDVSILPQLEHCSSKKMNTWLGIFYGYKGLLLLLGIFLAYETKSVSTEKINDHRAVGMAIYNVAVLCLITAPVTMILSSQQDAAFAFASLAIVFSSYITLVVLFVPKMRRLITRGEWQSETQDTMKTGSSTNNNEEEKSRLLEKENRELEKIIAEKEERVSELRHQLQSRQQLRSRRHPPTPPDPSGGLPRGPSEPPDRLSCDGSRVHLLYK
Sequence of GABA B receptor (O88871 whole entry): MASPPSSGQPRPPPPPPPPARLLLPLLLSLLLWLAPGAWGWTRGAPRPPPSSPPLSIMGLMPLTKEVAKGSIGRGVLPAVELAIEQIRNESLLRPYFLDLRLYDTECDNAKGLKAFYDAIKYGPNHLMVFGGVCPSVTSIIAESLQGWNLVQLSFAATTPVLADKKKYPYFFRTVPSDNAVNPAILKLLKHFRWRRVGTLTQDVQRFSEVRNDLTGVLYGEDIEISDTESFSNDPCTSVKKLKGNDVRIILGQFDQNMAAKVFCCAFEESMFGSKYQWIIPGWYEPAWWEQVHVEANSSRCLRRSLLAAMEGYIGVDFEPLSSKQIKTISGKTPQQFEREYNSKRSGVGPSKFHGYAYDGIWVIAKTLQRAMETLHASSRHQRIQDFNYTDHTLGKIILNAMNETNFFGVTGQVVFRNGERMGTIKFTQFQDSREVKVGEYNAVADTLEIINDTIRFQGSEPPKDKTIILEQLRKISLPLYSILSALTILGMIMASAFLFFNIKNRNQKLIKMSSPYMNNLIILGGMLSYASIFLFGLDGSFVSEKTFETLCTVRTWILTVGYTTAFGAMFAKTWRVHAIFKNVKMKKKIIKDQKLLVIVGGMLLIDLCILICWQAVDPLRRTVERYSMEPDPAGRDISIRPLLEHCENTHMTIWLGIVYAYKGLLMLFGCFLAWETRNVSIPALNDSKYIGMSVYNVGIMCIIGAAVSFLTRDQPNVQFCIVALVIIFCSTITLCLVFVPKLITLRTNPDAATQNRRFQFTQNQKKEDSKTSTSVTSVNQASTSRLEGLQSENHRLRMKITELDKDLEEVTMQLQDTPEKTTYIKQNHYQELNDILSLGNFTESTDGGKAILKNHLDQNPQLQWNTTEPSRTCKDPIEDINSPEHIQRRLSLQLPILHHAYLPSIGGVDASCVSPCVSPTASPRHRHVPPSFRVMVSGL

| SMILES | IC50 (GABA B receptor) [µM] | IC50 [1] [µM] |
| --- | --- | --- |
| NCC1(CC(=O)O)CCc2cc(Cl)ccc21 (configuration not stated) | > 100 | > 100 |
| NCC1(CC(=O)O)CCc2ccccc21 (configuration not stated) | > 100 | > 100 |
| NCC1(CC(=O)O)Cc2ccccc21 (configuration not stated) | > 100 | > 100 |
| NCC(CC(=O)O)c1c(Cl)cccc1Cl (configuration not stated) | > 100 | > 100 |
| NCC(CC(=O)O)c1ccc(Cl)cc1Cl (configuration not stated) | 11 | > 100 |
| NCC1(CC(=O)O)CCCc2ccccc21 (configuration not stated) | > 100 | > 100 |

From ChEMBL document CHEMBL1125828 (J Med Chem, 1991)
